US5834012A, “Lipid complexed topoisomerase I inhibitors” (Perez-Soler; Roman, priority 1995, dated 1998)
Counter-ions that a name gives are not always drawn.

What was measured:
[1] = Lipids screened for complexation with CPT (fluorescent microscopy; % bound); type: physicochemical; conditions: for % bound to CPT / Crystals: Table 1; for Crystals: lipid alone with CPT, fluorescent microscopy
Description: (§1) In order to prepare LC-CPT (a liposomal preparation containing CPT within spherical lipid vesicles) various individual lipids were screened for complexation with CPT. […] CPT crystals and lipid/CPT complexes of >0.4 microns can be visualized under a fluorescent microscope (since CPT fluoresces due to its rigid ring structure). […] Therefore, the better a lipid complexes with CPT the less CPT crystals are formed, and the more lipid/CPT complexes are formed.
Drug/lipid Complex Preparation. CPT was mixed in ratios of from 2:1 to 25:1 w/w lipid:drug in chloroform-methanol (8:1). For studies where CPT was radiolabeled, approximately 0.02 uCi/ml [^3 H] CPT was added to the preparation. Trace quantities of ^14 C labeled cholesterol was added to samples requiring lipid labeling. For small samples, the lipids were dried in 12×75 mm culture tubes under a stream of nitrogen gas. For large samples, a rotavapor (Buchi RE140, Switzerland) was used to dry lipids in a 100 to 1000 ml round bottom flasks. […] For liposomal CPT 0.9% Nace was used. Preparations were screened for lipid entrapment by light and fluorescent microscopy (Nikon Labophot-2, Japan). […]
Lipids of varying carbon chain length, charge, and saturation, alone or in different combinations, were empirically screened for their ability to form liposomes incorporating CPT by fluorescent microscopy.

[2] = Hertzberg et al., 1989; cited from earlier work
[3] = system: human tumors; conditions: cited from earlier work
[4] = Complexation with CPT / liposome formation by fluorescent microscopy; type: physicochemical
Description: as §1
Drug/lipid Complex Preparation. CPT was mixed in ratios of from 2:1 to 25:1 w/w lipid:drug in chloroform-methanol (8:1). For studies where CPT was radiolabeled, approximately 0.02 uCi/ml [^3 H] CPT was added to the preparation. Trace quantities of ^14 C labeled cholesterol was added to samples requiring lipid labeling. For small samples, the lipids were dried in 12×75 mm culture tubes under a stream of nitrogen gas. For large samples, a rotavapor (Buchi RE140, Switzerland) was used to dry lipids in a 100 to 1000 ml round bottom flasks. The lipophilic film was then vortexed in a Touch Mixer Model 231 (Fisher Scientific, Fair Lawn, N.J., U.S.A.) for one minute in sterile phosphate buffered saline (pH 7.4). For liposomal CPT 0.9% Nace was used. Preparations were screened for lipid entrapment by light and fluorescent microscopy (Nikon Labophot-2, Japan).
To increase the cytotoxic effects of LC-CPT relative to CPT, lipid must surround (encapsulate) the CPT to protect it from inactivation. Since the cytotoxicity of LC-CPT was similar to that of the free drug, the CPT was not encapsulated by the lipid (DO-NGPE). Encapsulation (and concomitant protection from inactivation) can be accomplished by surrounding CPT in a liposome (a unilamellar or multilamellar structure). […] Therefore, LC-CPT appears to only contain enough lipid to form micellar aggregates of CPT or to form a hydrophobic scaffold for CPT-CPT aggregation.
The inventors attempted to protect the CPT from inactivation by surrounding the existing DO-NGPE:CPT complex with a liposome (Table 3) or by adding another lipid to DO-NGPE to form a liposome. […]

[5] = Chromatographic evaluation of CPT in the liposome fraction; type: physicochemical; conditions: lipid used alone
Description: Chromatography. A 30 cm agarose 0.5M column is used to separate liposome-bound drug from free CPT. PBS is used as the mobile phase for all preparations. Twenty samples were collected in 3 mL aliquots for a total of 60 mLs. Fluorescence and scintigraphy were used to detect encapsulated and free drug. Fluorimetry. Aliquots of 20 μl from each collection tube were transferred to cuvets containing 2 ml methanol. Fluorimetry was performed as described by Hart et al. (Hart et al., 1969). Fluorescence was measured at an excitation wavelength of 370 nm and emission wavelength of 434 nm (Perkin-Elmer MPF44A, Norwalk, Conn., U.S.A.). Two ml of ethanol was used as a control for machine calibration.
Chromatographic evaluation confirmed that <5% of CPT was incorporated in the liposome fraction of the preparation, the rest presumably being solubilized or in small particles not detectable by fluorescence microscopy.
These observation led the present inventors to other negatively charged lipids. […] Chromatographic evaluation of these preparations confirmed again that <5% of CPT eluted with the liposome fraction, the rest of the drug eluting later in a large number of consecutive fractions. By differential centrifugation, the lipid-binding efficiency of cardiolipin was about 67% and that of DO-NGPE 97%. DO-NGPE-CPT was, therefore, selected for further biological and pharmacological studies.

% bound to CPT [1]	Crystals [1]	Structure (SMILES)	also measured
< 5%	yes	CCCCCCCC/C=C\CCCCCCCC(=O)O[C@H](COC(=O)CCCCCCCCCCCCCCCCC)COP(=O)([O-])OCC[N+](C)(C)C [1-Stearoyl, 2-Oleoyl PC]	
		CC[C@@](O)(C(=O)O)c1cc2n(c(=O)c1CO)Cc1cc3ccccc3nc1-2 [sodium salt of CPT, camptothecin sodium]	activity relative to closed lactone ring base (in words) [2]: significantly less active than the lipophilic base compound; dose-limiting toxicity ([3]; clinical trials, early 1970's): dose-limiting leukopenia, cystitis, and gastroenteritis; clinical antitumor activity (in words) ([3]; intestinal tumors metastatic to the liver): demonstrated activity in human tumors
		CCCCCCCC/C=C\CCCCCCCC(=O)OC[C@H](COP(=O)(O)OCCN)OC(=O)CCCCCCC/C=C\CCCCCCCC [DOPE, 1,2-Dioleoyl-sn-Glycero-3-Phosphoethanolamine]	complexation with CPT / liposome formation / CPT crystals (in words) [4]: complex well with CPT
		CCCCCCCC/C=C/CCCCCCCC(=O)OC[C@H](COP(=O)([O-])OCC[N+](C)(C)C)OC(=O)CCCCCCC/C=C/CCCCCCCC [Dielaidoyl PC]	complexation with CPT / liposome formation / CPT crystals (in words) [4]: complex well with CPT
		CCCCCCCC/C=C\CCCCCCCC(=O)OCC(C[N+](C)(C)C)OC(=O)CCCCCCC/C=C\CCCCCCCC (stereo not shown) [DOTAP, 1,2-Dioleoyl-3-Trimethylammonium-Propane]	complexation with CPT / liposome formation / CPT crystals (in words) [4]: complex well with CPT
< 5%	no	CCCCCCCC/C=C\CCCCCCCC(=O)OC[C@H](COP(=O)(O)OCC(O)CO)OC(=O)CCCCCCC/C=C\CCCCCCCC (mixture of isomers) [Dioleoyl PG, 1,2-Dioleoyl-sn-Glycero-3-[Phospho-rac-(1-glycerol)]]	CPT incorporated in / eluted with the liposome fraction [5]: < 5%; interaction with CPT (in words) [1]: lack of drug crystallization
< 5%	yes	CCCCCCCCCCCCCC(=O)OC[C@H](COP(=O)(O)OCC(O)CO)OC(=O)CCCCCCCCCCCCC (mixture of isomers) [Dimyristoyl PG, 1,2-Dimyristoyl-sn-Glycero-3-[Phospho-rac-(1-glycerol)]]	
< 5%	yes	CCCCCCCCCCCCCCCCCC(=O)OC[C@H](COP(=O)([O-])OCC[N+](C)(C)C)OC(=O)CCCCCCCCCCCCC [1-Stearoyl, 2-Myristdyl PC]	

Structure (SMILES)	% bound to CPT [1]	Crystals [1]	also measured
CCCCCC(=O)OC[C@H](COP(=O)([O-])OCC[N+](C)(C)C)OC(=O)CCCCC [Dicaproyl PC]	< 5%	yes	
CCCCCCCCCCCCCC(=O)OC[C@H](COP(=O)([O-])OCC[N+](C)(C)C)OC(=O)CCCCCCCCCCCCC [Dimyristoyl PC, 1,2-Dimyristoyl-sn-Glycero-3-Phosphocholine]	< 5%	yes	
CCCCCCCCCCCCCCCCCC(=O)OC[C@H](COP(=O)([O-])OCC[N+](C)(C)C)OC(=O)CCCCCCCCCCCCCCCCC [Distearoyl PC]	< 5%	yes	
